Here are results for nine compounds from patent publication US9068970B2, “Efficient and effective supplement screening for the development of chemically defined media in cell culture” (Abbvie Inc., priority 2010, dated 2015).

Read-outs that look alike come from different tables or passages of the source.

Holding throughout (assay type): cell-based
The subject of assay [1] is recombinant IgG producing Chinese Hamster Ovary cell line (CHO cell line #1). In words: 24-well plate media supplement screening: peak viable cell density (CellTiter 96 AQueous). Here is the method:
(§1) 24-well plates were utilized at a working volume of 1.5 mL per well to serve as the platform for media supplement screening. An in-house, base chemically defined media (CDM #1) was used as the basal media for the purposes of the experiments. A recombinant IgG producing Chinese Hamster Ovary cell line (CHO cell line #1) was used for the media supplement screening phase of the experiments.
All 24-well plate screening experiments were designed using JMP7 commercially available statistics software (Cary, N.C.) using custom experimental options. Six individual media supplement screening experiments were performed to test over a hundred different supplements in statistically designed experiments and in a serial fashion. All screening experiments were performed at […] cultured at 210 rpm on a shaker table in a 5% humidified CO2 incubator. Gas permeable, rayon film plate covers (VWR International, Radnor, Pa., Catalog #60941-086) were employed as necessary to provide a sterile barrier between the well plates, the plastic plate cover, and the culture atmosphere. Supplement solutions were manually pipetted into the respective plate wells using concentrated, sterile stock solutions. The comprehensive list of media supplements evaluated for cell culture process improvement is shown below in Table 2:
(§2) Two cell culture performance indicators were measured in the high-throughput screening experiments: peak viable cell density and harvest titer. Time point samples were withdrawn from each of the respective plate wells on Days 6, 7, and 8 post inoculation and measured for their respective viable cell densities spectrophotometrically via the CellTiter 96 AQueous Solution Cell Proliferation Assay Kits™ (Promega, Madison, Wis.). Harvest Titer measurements were conducted via high performance liquid chromatography (HPLC) with a Poros A™ affinity column (Applied Biosystems, Foster City, Calif.). All experimental wells supplemented with a particular combination of media compounds were compared to an unsupplemented control, with the results expressed as relative values relative to the control.
(§3) Two cell culture performance indicators were measured in the high-throughput screening experiments as well as media verification experiments; peak viable cell density (VCD) and harvest titer. […] A few days after the last cell count measurement sample the plates were centrifuged and the supernatant was collected and stored at −80° C. for future analysis. Harvest titer measurements were conducted via high performance liquid chromatography (HPLC) with a Poros A™ affinity column (Applied Biosystems, Foster City, Calif.). All experimental wells supplemented with a particular combination of media compounds were compared to an unsupplemented control, with the results expressed as values relative to the control. For the media verification experiments in larger-scale shaker and spinner flasks, viable cell density and viability were measured via Cedex automated cell counters (Roche Applied Science, Indianapolis, Ind.). Harvest titer measurements were similarly measured via HPLC.
(§4) Standard Analysis of Variance (ANOVA) was used to measure the significance of individual supplements and their respective interactions towards the resulting cell culture technique performance. Individual analyses were conducted on both peak viable cell density and harvest titer for each of the respective screening experiments. Three different levels of each media supplement were used in these experiments: unsupplemented (Level 1), lightly supplemented (Level 2), and heavily supplemented (Level 3). […] The optimization subroutine intrinsic to the statistics software was used to analyze the screening dataset determine the identity of a high performance media blend. It is important to note that the selection method is a mathematical exercise which can lead to multiple blends identified as having the highest performance parameters, and the results are highly dependent on the initial first guess.

The test system is the same in assay [2]. The experiment in a line: Supplement screening: process performance (peak VCD and/or harvest titer) by inspectional/statistical analysis. Here is the method:
as §4, with “guess. Three particular high performance blends were identified for further evaluation: […] The supplements whose relative concentrations supported a distinct pattern of either increasing or decreasing process performance were categorized into the clustered classification. […] These supplements were either compounds or groups of similar compounds such as polyamines, essential amino acids, and vitamins.” for “guess.”

Assay [3] shares this test system. The experiment in a line: 24-well plate media supplement screening: harvest titer (HPLC, Poros A affinity column). Here is the method: as §1
All 24-well plate screening experiments were designed using JMP7 commercially available statistics software (Cary, N.C.) using custom experimental options. Six individual media supplement screening experiments were performed to test over a hundred different supplements in statistically designed experiments and in a serial fashion. […] Supplement solutions were manually pipetted into the respective plate wells using concentrated, sterile stock solutions. The comprehensive list of media supplements evaluated for cell culture process improvement is shown below in Table 2:
as §2, §3, §4
The aforementioned supplements were evaluated for improvements in cell culture technique performance.

Assay [4] has the same test system. In words: JMP7 statistical identification of high performance media supplementation from a 15-supplement screening experiment. Here is the method: as §4
Fifteen of these supplements, or groups of supplements, were screened in a separate statistically designed experiment for the final determination of high performance media blends for the maximization of peak VCD, harvest titer, and both of these variables simultaneously.
The JMP7 statistical software program was further used to identify the high performance media supplementation for maximizing peak VCD, harvest titer, and both simultaneously.

Setting [5] is: HTS experiments, CDM #1, relative to unsupplemented control.
[6] abbreviates: univariate analysis of varying supplement concentrations.
The mark [7] stands for this setting: range given, variability in culture volumes.
The mark [8] stands for this setting: predicted amount for addition into the unsupplemented control media.

As for `O=S(=O)([O-])[O-].[Cu+2]` [Cupric sulfate], the “Effect on Peak VCD” value in assay [1] is recorded as “Increase”. Besides, in assay [2], the “Process Performance Pattern” value is recorded as “Wide dispersal”. Besides, the “Effect on Harvest Titer” value in assay [3] is “Decrease”. In addition, in assay [4], the “Concentration Target (Range) for Increase of Harvest Titer” value is 0 g/L; the “Concentration Target (Range) for Increase of Peak VCD” value is “+0.02 g/L”; the “Concentration Target (Range) for Increase of Peak VCD and Harvest Titer” value is recorded as 0 g/L.

As for `O=P(O)(O)O` [Potassium phosphate], the “Effect on Peak VCD” value in assay [1] is listed as “Increase”. The “Process Performance Pattern” value in assay [2] is recorded as “Clustered”. For the same compound, in assay [3], the “Effect on Harvest Titer” value is “Decrease”. In assay [4], the “Concentration Target (Range) for Increase of Harvest Titer” value is recorded as “+0.09 (0.08-0.10) g/L”; the “Concentration Target (Range) for Increase of Peak VCD” value is “+0.10 (0.09-0.12) g/L”; the “Concentration Target (Range) for Increase of Peak VCD and Harvest Titer” value is on record as “+0.10 (0.09-0.12) g/L”.

Consider `Cc1cn([C@H]2C[C@H](O)[C@@H](CO)O2)c(=O)[nH]c1=O` [Thymidine], for which the “Effect on Peak VCD” value in assay [1] (setting [5]) is “No change”. Further, in assay [2] (setting [6]), the “Process Performance Pattern” value is listed as “Wide dispersal”. In addition, the “Effect on Harvest Titer” value in assay [3] (setting [5]) is recorded as “Decrease”. For the same compound, in assay [4] (setting [7]), the “Concentration Range for Increase of Peak VCD” value is reported as “(1.75 × 10^−3-2.25 × 10^−3) g/L”.

As to `[Cl-].[Cl-].[Zn+2]` [Zinc chloride], the “Effect on Peak VCD” value in assay [1] (setting [5]) is on record as “No change”. For the same compound, the “Process Performance Pattern” value in assay [2] (setting [6]) is given as “Clustered”. For the same compound, the “Effect on Harvest Titer” value in assay [3] (setting [5]) is “Increase”. For the same compound, in assay [4] (setting [8]), the “Concentration Target (Range) for Increase of Harvest Titer” value is on record as “+5.46 × 10^−3 g/L”; the “Concentration Target (Range) for Increase of Peak VCD” value is “+2.05 × 10^−3 g/L”; the “Concentration Target (Range) for Increase of Peak VCD and Harvest Titer” value is recorded as “+5.12 × 10^−3 g/L”. In addition, in assay [4] (setting [7]), the “Concentration Range for Increase of Harvest Titer” value was “(4.85 × 10^−3-6.22 × 10^−3) g/L”; the “Concentration Range for Increase of Peak VCD” value is “(1.82 × 10^−3-2.33 × 10^−3) g/L”; the “Concentration Range for Increase of Peak VCD and Harvest Titer” value is reported as “(4.54 × 10^−3-5.83 × 10^−3) g/L”.

With `OC1C(O)C(O)C(O)C(O)C1O` (stereo not drawn) [i-inositol], the “Effect on Peak VCD” value in assay [1] (setting [5]) is “No change”. The “Process Performance Pattern” value in assay [2] (setting [6]) is “Wide dispersal”. Further, the “Effect on Harvest Titer” value in assay [3] (setting [5]) is recorded as “No change”. In addition, in assay [4] (setting [8]), the “Concentration Target (Range) for Increase of Harvest Titer” value is “+0.05 (0.05-0.06) g/L”; the “Concentration Target (Range) for Increase of Peak VCD” value is reported as “+0.11 (0.09-0.12) g/L”; the “Concentration Target (Range) for Increase of Peak VCD and Harvest Titer” value is on record as “+0.19 (0.17-0.22) g/L”.

Take `OC[C@H]1O[C@@H]2O[C@H]3[C@H](O)[C@@H](O)[C@@H](O[C@H]4[C@H](O)[C@@H](O)[C@@H](O[C@H]5[C@H](O)[C@@H](O)[C@@H](O[C@H]6[C@H](O)[C@@H](O)[C@@H](O[C@H]7[C@H](O)[C@@H](O)[C@@H](O[C@H]1[C@H](O)[C@H]2O)O[C@@H]7CO)O[C@@H]6CO)O[C@@H]5CO)O[C@@H]4CO)O[C@@H]3CO` [α-cyclodextrin]: in assay [1] (setting [5]), the “Effect on Peak VCD” value is “Increase”. Besides, in assay [2] (setting [6]), the “Process Performance Pattern” value is “Wide dispersal”. For the same compound, the “Effect on Harvest Titer” value in assay [3] (setting [5]) is recorded as “Increase”. In addition, in assay [4] (setting [8]), the “Concentration Target (Range) for Increase of Harvest Titer” value is given as 0 g/L; the “Concentration Target (Range) for Increase of Peak VCD” value is “+0.16 (0.14-0.18) g/L”; the “Concentration Target (Range) for Increase of Peak VCD and Harvest Titer” value is given as 0 g/L.

As to `OC[C@H]1O[C@@H]2O[C@H]3[C@H](O)[C@@H](O)[C@@H](O[C@H]4[C@H](O)[C@@H](O)[C@@H](O[C@H]5[C@H](O)[C@@H](O)[C@@H](O[C@H]6[C@H](O)[C@@H](O)[C@@H](O[C@H]7[C@H](O)[C@@H](O)[C@@H](O[C@H]8[C@H](O)[C@@H](O)[C@@H](O[C@H]1[C@H](O)[C@H]2O)O[C@@H]8CO)O[C@@H]7CO)O[C@@H]6CO)O[C@@H]5CO)O[C@@H]4CO)O[C@@H]3CO` [β-cyclodextrin], the “Effect on Peak VCD” value in assay [1] (setting [5]) is “Increase”. For the same compound, in assay [2] (setting [6]), the “Process Performance Pattern” value is “Wide dispersal”. Moreover, the “Effect on Harvest Titer” value in assay [3] (setting [5]) is “Increase”. Further, in assay [4] (setting [8]), the “Concentration Target (Range) for Increase of Harvest Titer” value is 0 g/L; the “Concentration Target (Range) for Increase of Peak VCD” value is recorded as “+0.16 (0.14-0.18) g/L”; the “Concentration Target (Range) for Increase of Peak VCD and Harvest Titer” value is 0 g/L.

For the compound Calcium pantothenate, the “Effect on Peak VCD” value in assay [1] (setting [5]) is reported as “Increase”. In assay [2] (setting [6]), the “Process Performance Pattern” value was “Wide dispersal”. In addition, in assay [3] (setting [5]), the “Effect on Harvest Titer” value is on record as “No change”. In addition, in assay [4] (setting [8]), the “Concentration Target (Range) for Increase of Harvest Titer” value is given as 0 g/L; the “Concentration Target (Range) for Increase of Peak VCD” value is reported as “+0.15 (0.13-0.17) g/L”; the “Concentration Target (Range) for Increase of Peak VCD and Harvest Titer” value was 0 g/L.

Manganese chloride: the “Effect on Peak VCD” value in assay [1] (setting [5]) is “Increase”. For the same compound, in assay [2] (setting [6]), the “Process Performance Pattern” value is recorded as “Wide dispersal”. Further, the “Effect on Harvest Titer” value in assay [3] (setting [5]) is recorded as “No change”. Besides, in assay [4] (setting [8]), the “Concentration Target (Range) for Increase of Harvest Titer” value is reported as “+1.07 × 10^−4 g/L”; the “Concentration Target (Range) for Increase of Peak VCD” value is “+6.67 × 10^−5^ g/L”; the “Concentration Target (Range) for Increase of Peak VCD and Harvest Titer” value is given as 0 g/L. For the same compound, in assay [4] (setting [7]), the “Concentration Range for Increase of Harvest Titer” value is given as “(9.46 × 10^−5-1.21 × 10^−4) g/L” and the “Concentration Range for Increase of Peak VCD” value is given as “(5.91 × 10^−5-7.59 × 10^−5) g/L”.
